Test results from patent publication US11319315B2, “Cyclohexyl acid triazole azoles as LPA antagonists” (BRISTOL-MYERS SQUIBB COMPANY, priority 2017, dated 2022).

biological target: T1, human LPA1 (Homo sapiens, UniProt Q92633); experiment: LPA1 functional antagonist assay (LPA-induced calcium flux in CHO cells overexpressing human LPA1); type: cell-based; settings: inhibition of calcium flux induced by 10 nM LPA, CHO cells overexpressing human LPA1; read-out: hLPA1 IC50
T1 construct: expressed in transfected cells; host or cells: Chinese hamster ovary (CHO) cells
T1 sequence (Q92633 whole entry): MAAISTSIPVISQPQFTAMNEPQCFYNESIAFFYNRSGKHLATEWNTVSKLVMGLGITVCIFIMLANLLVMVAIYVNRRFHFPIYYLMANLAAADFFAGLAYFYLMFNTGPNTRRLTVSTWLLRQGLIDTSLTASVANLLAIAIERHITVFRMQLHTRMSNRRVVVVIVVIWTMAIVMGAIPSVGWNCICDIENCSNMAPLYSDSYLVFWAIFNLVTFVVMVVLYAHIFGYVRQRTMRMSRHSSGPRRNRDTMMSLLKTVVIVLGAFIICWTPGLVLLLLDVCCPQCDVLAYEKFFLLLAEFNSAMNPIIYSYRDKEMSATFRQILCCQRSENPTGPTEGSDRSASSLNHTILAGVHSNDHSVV
In short: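 CHO cells overexpressing human LPA1, dye-loaded 30 min at 37 °C, then given compound (0.08 nM–5 μM final, 0.5% DMSO) in HBSS/20 mM HEPES/0.1% fatty-acid-free BSA for 20 min at room temperature before 10 nM LPA. IC50 as 50% inhibition of LPA-evoked calcium flux, 4-parameter logistic fit.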

Point of comparison: `Cc1nc(-c2nnn(C)c2Cn2nnc(OCC3CC3)n2)ccc1O[C@H]1CCC[C@H](C(=O)O)C1` [Example 348, (1S,3S)-3-{[6-(5-{[5-(cyclopropyl-methoxy)-2H-1,2,3,4-tetrazol-2-yl]methyl}-1-methyl-1H-1,2,3-triazol-4-yl)-2-methylpyridin-3-yl]oxy}cyclohexane-1-carboxylic acid], IC50 26 nM. Against it:
- Cc1nc(-c2nnn(C)c2Cn2nnc(CC3CCCC3)n2)ccc1O[C@H]1CCC[C@H](C(=O)O)C1 [Example 331, (1S,3S)-3-((6-(5-((5-(cyclopentyl-methyl)-2H-tetrazol-2-yl)methyl)-1-methyl-1H-1,2,3-triazol-4-yl)-2-methylpyridin-3-yl)oxy)cyclohexane-1-carboxylic acid] — 3.7-fold lower, 7 nM
- Cc1nc(-c2nnn(C)c2Cn2nnc(OCC3CCC3)n2)ccc1O[C@H]1CCC[C@H](C(=O)O)C1 [Example 332, (1S,3S)-3-{[6-(5-{[5-(cyclobutyl-methoxy)-2H-1,2,3,4-tetrazol-2-yl]methyl}-1-methyl-1H-1,2,3-triazol-4-yl)-2-methylpyridin-3-yl]oxy}cyclohexane-1-carboxylic acid] — within 1.5-fold, 30 nM
- Cc1nc(-c2nnn(C)c2Cn2nnc(OC3CCC3)n2)ccc1O[C@H]1CCC[C@H](C(=O)O)C1 [Example 333, (1S,3S)-3-[(6-{5-[(5-cyclobutoxy-2H-1,2,3,4-tetrazol-2-yl)methyl]-1-methyl-1H-1,2,3-triazol-4-yl}-2-methylpyridin-3-yl)oxy]cyclo-hexane-1-carboxylic acid] — 1.8-fold higher, 48 nM
- Cc1nc(-c2nnn(C)c2Cn2nnc(OCC3CC(F)(F)C3)n2)ccc1O[C@H]1CCC[C@@H](C(=O)O)C1 [Example 334, (1R,3S)-3-({6-[5-({5-[(3,3-difluoro-cyclobutyl)methoxy]-2H-1,2,3,4-tetrazol-2-yl}methyl)-1-methyl-1H-1,2,3-triazol-4-yl]-2-methylpyridin-3-yl}oxy)cyclohexane-1-carboxylic acid] — 9.9-fold higher, 258 nM
- Cc1nc(-c2nnn(C)c2Cn2nnc(OC3CCC3)n2)ccc1O[C@H]1CCC[C@@H](C(=O)O)C1 [Example 335, (1R,3S)-3-[(6-{5-[(5-cyclobutoxy-2H-1,2,3,4-tetrazol-2-yl)methyl]-1-methyl-1H-1,2,3-triazol-4-yl}-2-methylpyridin-3-yl)oxy]cyclo-hexane-1-carboxylic acid] — 16-fold higher, 405 nM
- Cc1nc(-c2nnn(C)c2Cn2nnc(OC3CCCC3)n2)ccc1O[C@H]1CCC[C@H](C(=O)O)C1 [Example 336, (1S,3S)-3-{[6-(5-{[5-(cyclopentyl-oxy)-2H-1,2,3,4-tetrazol-2-yl]methyl}-1-methyl-1H-1,2,3-triazol-4-yl)-2-methylpyridin-3-yl]oxy}cyclohexane-1-carboxylic acid] — 2.6-fold higher, 67 nM
- Cc1nc(-c2nnn(C)c2Cn2nnc(OC3CCCC3)n2)ccc1O[C@H]1CCC[C@@H](C(=O)O)C1 [Example 337, (1R,3S)-3-{[6-(5-{[5-(cyclopentyloxy)-2H-1,2,3,4-tetrazol-2-yl]methyl}-1-methyl-1H-1,2,3-triazol-4-yl)-2-methylpyridin-3-yl]oxy}cyclohexane-1-carboxylic acid] — 21-fold higher, 546 nM
- Cc1nc(-c2nnn(C)c2Cn2nnc(OCC3CC(F)(F)C3)n2)ccc1O[C@H]1CCC[C@H](C(=O)O)C1 [Example 338] — 1.7-fold higher, 43 nM
- Cc1nc(-c2nnn(C)c2Cn2nnc(OCC3CC3)n2)ccc1O[C@H]1CCC[C@@H](C(=O)O)C1 [Example 339, (1R,3S)-3-{[6-(5-{[5-(cyclopropyl-methoxy)-2H-1,2,3,4-tetrazol-2-yl]methyl}-1-methyl-1H-1,2,3-triazol-4-yl)-2-methylpyridin-3-yl]oxy}cyclohexane-1-carboxylic acid] — 7.4-fold higher, 192 nM
- CCCOc1nnn(Cc2c(-c3ccc(O[C@H]4CCC[C@H](C(=O)O)C4)c(C)n3)nnn2C)n1 [Example 340] — 3.7-fold higher, 97 nM
- Cc1nc(-c2nnn(C)c2Cn2nnc(OC3CC3)n2)ccc1O[C@H]1CCC[C@@H](C(=O)O)C1 [Example 341, (3S)-3-[(6-{5-[(5-cyclopropoxy-2H-1,2,3,4-tetrazol-2-yl)methyl]-1-methyl-1H-1,2,3-triazol-4-yl}-2-methylpyridin-3-yl)oxy]cyclo-hexane-1-carboxylic acid] — 3.1-fold higher, 81 nM
- Cc1nc(-c2nnn(C)c2Cn2nnc(OCc3ccccc3)n2)ccc1O[C@H]1CCC[C@H](C(=O)O)C1 [Example 342, (1S,3S)-3-{[6-(5-{[5-(benzyloxy)-2H-1,2,3,4-tetrazol-2-yl]methyl}-1-methyl-1H-1,2,3-triazol-4-yl)-2-methylpyridin-3-yl]oxy}cyclo-hexane-1-carboxylic acid] — 2.4-fold lower, 11 nM
- Cc1nc(-c2nnn(C)c2Cn2nnc(S(C)(=O)=O)n2)ccc1O[C@H]1CCC[C@H](C(=O)O)C1 [Example 343, (1S,3S)-3-[(6-{5-[(5-methane-sulfonyl-2H-1,2,3,4-tetrazol-2-yl)methyl]-1-methyl-1H-1,2,3-triazol-4-yl}-2-methylpyridin-3-yl)oxy]cyclohexane-1-carboxylic acid] — 42-fold higher, 1100 nM
- Cc1nc(-c2nnn(C)c2Cn2nnc(OCC(C)C)n2)ccc1O[C@H]1CCC[C@H](C(=O)O)C1 [Example 344, (1S,3S)-3-{[2-methyl-6-(1-methyl-5-{[5-(2-methylpropoxy)-2H-1,2,3,4-tetrazol-2-yl]methyl}-1H-1,2,3-triazol-4-yl)pyridin-3-yl]oxy}cyclohexane-1-carboxylic acid] — within 1.5-fold, 25 nM
- CCCCOc1nnn(Cc2c(-c3ccc(O[C@H]4CCC[C@H](C(=O)O)C4)c(C)n3)nnn2C)n1 [Example 345, (1S,3S)-3-[(6-{5-[(5-butoxy-2H-1,2,3,4-tetrazol-2-yl)methyl]-1-methyl-1H-1,2,3-triazol-4-yl}-2-methylpyridin-3-yl)oxy]cyclo-hexane-1-carboxylic acid] — within 1.5-fold, 32 nM
- Cc1nc(-c2nnn(C)c2Cn2nnc(OC(C)C)n2)ccc1O[C@H]1CCC[C@H](C(=O)O)C1 [Example 346, (1S,3S)-3-{[2-methyl-6-(1-methyl-5-{[5-(propan-2-yloxy)-2H-1,2,3,4-tetrazol-2-yl]methyl}-1H-1,2,3-triazol-4-yl)pyridin-3-yl]oxy}cyclohexane-1-carboxylic acid] — 1.9-fold higher, 49 nM
- CCCOc1nnn(Cc2c(-c3ccc(O[C@H]4CCC[C@@H](C(=O)O)C4)c(C)n3)nnn2C)n1 [Example 347, (1R,3S)-3-[(2-methyl-6-{1-methyl-5-[(5-propoxy-2H-1,2,3,4-tetrazol-2-yl)methyl]-1H-1,2,3-triazol-4-yl}pyridin-3-yl)oxy]cyclohexane-1-carboxylic acid] — 10-fold higher, 270 nM
- Cc1c(O[C@H]2CCC[C@H](C(=O)O)C2)ccc(-c2nnn(C)c2Cn2nnc(OCC3CC3)n2)[n+]1[O-] [Example 349, 3-{[(1S,3S)-3-carboxycyclohexyl]oxy}-6-(5-{[5-(cyclopropyl-methoxy)-2H-1,2,3,4-tetrazol-2-yl]methyl}-1-methyl-1H-1,2,3-triazol-4-yl)-2-methylpyridin-1-ium-1-olate] — 12-fold higher, 304 nM
- Cc1nc(-c2nnn(C)c2Cn2nnnc2S(C)(=O)=O)ccc1O[C@H]1CCC[C@H](C(=O)O)C1 [Example 350, (1S,3S)-3-[(6-{5-[(5-methanesul-fonyl-1H-1,2,3,4-tetrazol-1-yl)methyl]-1-methyl-1H-1,2,3-triazol-4-yl}-2-methylpyridin-3-yl)oxy]cyclohexane-1-carboxylic acid] — 48-fold higher, 1240 nM
- Cc1nc(-c2nnn(C)c2Cn2nnnc2OCC2CC2)ccc1O[C@H]1CCC[C@H](C(=O)O)C1 [Example 351, (1S,3S)-3-{[6-(5-{[5-(cyclopropyl-methoxy)-1H-1,2,3,4-tetrazol-1-yl]methyl}-1-methyl-1H-1,2,3-triazol-4-yl)-2-methylpyridin-3-yl]oxy}cyclohexane-1-carboxylic acid] — 5.8-fold higher, 152 nM
- CSc1nnnn1Cc1c(-c2ccc(O[C@H]3CCC[C@H](C(=O)O)C3)c(C)n2)nnn1C [Example 352, (1S,3S)-3-{[2-methyl-6-(1-methyl-5-{[5-(methylsulfanyl)-1H-1,2,3,4-tetrazol-1-yl]methyl}-1H-1,2,3-triazol-4-yl)pyridin-3-yl]oxy}cyclohexane-1-carboxylic acid] — 22-fold higher, 580 nM
- CSc1nnn(Cc2c(-c3ccc(O[C@H]4CCC[C@H](C(=O)O)C4)c(C)n3)nnn2C)n1 [Example 353, (1S,3S)-3-{[2-methyl-6-(1-methyl-5-{[5-(methylsulfanyl)-2H-1,2,3,4-tetrazol-2-yl]methyl}-1H-1,2,3-triazol-4-yl)pyridin-3-yl]oxy}cyclohexane-1-carboxylic acid] — 31-fold higher, 800 nM
- Cc1nc(-c2nnn(C)c2Cn2nnnc2C2CCC2)ccc1O[C@H]1CCC[C@H](C(=O)O)C1 [Example 354, (1S,3S)-3-[(6-{5-[(5-cyclobutyl-1H-1,2,3,4-tetrazol-1-yl)methyl]-1-methyl-1H-1,2,3-triazol-4-yl}-2-methylpyridin-3-yl)oxy]cyclo-hexane-1-carboxylic acid] — 8.7-fold higher, 226 nM
- Cc1nc(-c2nnn(C)c2Cn2nnc(C3CCC3)n2)ccc1O[C@H]1CCC[C@H](C(=O)O)C1 [Example 355, (1S,3S)-3-[(6-{5-[(5-cyclobutyl-2H-1,2,3,4-tetrazol-2-yl)methyl]-1-methyl-1H-1,2,3-triazol-4-yl}-2-methylpyridin-3-yl)oxy]cyclohexane-1-carboxylic acid] — within 1.5-fold, 32 nM
- Cc1nc(-c2nnn(C)c2Cn2nnnc2CC2CCC2)ccc1O[C@H]1CCC[C@H](C(=O)O)C1 [Example 356, (1S,3S)-3-{[6-(5-{[5-(cyclobutyl-methyl)-1H-1,2,3,4-tetrazol-1-yl]methyl}-1-methyl-1H-1,2,3-triazol-4-yl)-2-methylpyridin-3-yl]oxy}cyclohexane-1-carboxylic acid] — 5.6-fold higher, 146 nM
- Cc1nc(-c2nnn(C)c2Cn2nnnc2CCC2CC2)ccc1O[C@H]1CCC[C@H](C(=O)O)C1 [Example 357, (1S,3S)-3-{[6-(5-{[5-(2-cyclopro-pylethyl)-1H-1,2,3,4-tetrazol-1-yl]methyl}-1-methyl-1H-1,2,3-triazol-4-yl)-2-methylpyridin-3-yl]oxy}cyclohexane-1-carboxylic acid] — 13-fold higher, 332 nM
